The subject of assay [1] is lettuce seeds (Lactuca sativa). The following applies: cited from earlier work.
Assay [2] deals with peripheral human leukocytes. Nature of the assay: Inhibition of anti-IgE-induced histamine liberation from peripheral human leukocytes. The assay is classed as cell-based. The source says: (§1) For the detection of the anti-allergic action, there was used the inhibition of the proteinase liberation from peripheral human leukocytes induced by anti-IgE antibodies (Wilhelmset et al. XII Congress Europ. Acad. Allergology Clin. Immunology, Rome, Sep. 25--3), 1983, as well as DE-Al-34 46 714) or of the histamine liberation in an analogous process according to a further development of the method of R. P. Siraganian and W. A. Hook (Manual of Clinical Immunology, 2nd edition, 1980, pub. N. R. Rose and H. Friedman, Am. Soc. for Microbiology, pages 808 to 821).
(§2) Description of the Test System for the Testing for Mediator Liberation Inhibition from Human Leukocytes in Vitro
(§3) The liberation of proteinase on isolated human leukocytes is initiated by stimulation with anti-IgE antibodies (IgE-mediated mediator liberation from basophilic granulocytes). The intensity of this liberation reaction is determined by substrate addition (chromozyme TH) and photometric measurement in that the colour intensity of the samples±inhibitor addition are compared.
(§4) Buffy-coat cells=concentrated cell suspension from blood preserve.
(§5) In the following Table I are reproduced the inhibition values of the anti-IgE-induced liberation of histamine and proteinase from peripheral human leukocytes. As comparison substance, there was used the known degranulation inhibitor theophylline.

Assay [3] has as its system guinea pig lung parenchyma strips. The assay is described as follows: Inhibition of the antigen-caused constriction of passively sensitised guinea pig lung parenchyma strips in vitro (organ bath). Further details: key to R = relaxation: R: relaxation. The settings on record: for inhibition at 10 µg/mL / inhibition at 40 µg/mL: Cavia porcellus. Here is the method:
As further detection for the anti-allergic action, there was investigated the inhibition of the antigen-caused constriction of passive sensitised guinea pig lung parenchyma strips in vitro.
Inhibition of the Antigen-Caused Construction of Passively Sensitised Guinea Pig Lung Parenchyma Strips in Vitro (Organ Bath)
For the in vitro investigation of the compounds according to the invention, there was measured the inhibition of the antigen-caused constriction on passively sensitised guinea pig lung parenchyma strips, as described in the following.
Pirbright white guinea pigs were stunned by neck blow and exsanguinated. The lungs were rinsed in situ substantially free of blood with Krebs buffer, pH 7.4.
Subsequently, the lung was removed, cut up into strips (about 20×4×4 mm) and the strips passively sensitised for 1 hour at room temperature with a 1:50 dilution of a homologous anti-ovalbumin antiserum and then washed with Krebs buffer 1×.
The antiserum had been previously produced in guinea pigs of the same strain according to Davies G. E., T. P. Johnstone (Quantitative studies on anaphylaxis in guinea pigs passively sensitised with homologous antibody; Inter. Arch. 41, 648-654 (1971)) by repeated injection of ovalbumin (2×crystallised) with the addition of complete Freund's adjuvant.
Up to its use, the antiserum was stored undiluted at -18° C.
Subsequently, the lung strips were suspended individually in 10 ml. waterbaths with a prestressing of 1.2 g on an isometric measurement recorder.
Thereafter, the waterbaths were filled with Krebs buffer and continuously gassed at 37° C. with O2 (95%) and CO2 (5%).
The constructions of the lung strips were recorded on a disc via an amplifier.
After 30 minutes acclimatisation phase, histamine control spasms were produced for the recognition of the reaction ability of the organ pieces, washed, subsequently the test substance pre-incubated for 20 minutes at 37° C. and thereafter the ovalbumin-caused constriction initiated.
The inhibition actions of the compounds according to the invention were expressed as percentage reduction of the constriction amplitude of the "samples with test substance" in comparison with the "untreated control constrictions".

For the next assay, the system named is plant growth. The settings on record: cited from earlier work.
Assay [4] relates to peripheral human leukocytes. Nature of the assay: Inhibition of anti-IgE-induced proteinase liberation from peripheral human leukocytes. The assay is classed as cell-based.
Excerpt: as §1, §2, §3, §4, §5

[5] abbreviates: Homo sapiens, Leukocyte, conc. 2 μg/ml.
Setting [6] is: Homo sapiens, Leukocyte, conc. 10 μg/ml.
Where [7] appears, read: substance 10.00 mcg/ml, A = histamine 1.0 mcg/ml, read-out: Inhibition of constriction (percentage reduction of the constriction amplitude), spasmogen A.
Where [8] appears, read: substance 10.00 mcg/ml, B = ovalbumin 0.1 mcg/ml, read-out: Inhibition of constriction (percentage reduction of the constriction amplitude), spasmogen B.
Setting [9] is: substance 10.00 mcg/ml, C = glucose 1.16 %, read-out: Inhibition of constriction (percentage reduction of the constriction amplitude), spasmogen C.
Setting [10] is: substance 10.00 mcg/ml, D = ovalbumin 1.0 mcg/ml, read-out: Inhibition of constriction (percentage reduction of the constriction amplitude), spasmogen D.
Where [11] appears, read: substance 40.00 mcg/ml, A = histamine 1.0 mcg/ml, read-out: Inhibition of constriction (percentage reduction of the constriction amplitude), spasmogen A.
Setting [12] is: substance 40.00 mcg/ml, B = ovalbumin 0.1 mcg/ml, read-out: Inhibition of constriction (percentage reduction of the constriction amplitude), spasmogen B.
Setting [13] is: substance 40.00 mcg/ml, C = glucose 1.16 %, read-out: Inhibition of constriction (percentage reduction of the constriction amplitude), spasmogen C.
[14] abbreviates: substance 40.00 mcg/ml, D = ovalbumin 1.0 mcg/ml, read-out: Inhibition of constriction (percentage reduction of the constriction amplitude), spasmogen D.
The mark [15] stands for this setting: substance 10.00 mcg/ml, A = histamine 1.0 mcg/ml.
The mark [16] stands for this setting: substance 10.00 mcg/ml, B = ovalbumin 0.1 mcg/ml.
Setting [17] is: substance 10.00 mcg/ml, C = glucose 1.16 %.
Where [18] appears, read: substance 10.00 mcg/ml, D = ovalbumin 1.0 mcg/ml.
Where [19] appears, read: substance 40.00 mcg/ml, A = histamine 1.0 mcg/ml.
[20] abbreviates: substance 40.00 mcg/ml, B = ovalbumin 0.1 mcg/ml.
Setting [21] is: substance 40.00 mcg/ml, C = glucose 1.16 %.
Where [22] appears, read: substance 40.00 mcg/ml, D = ovalbumin 1.0 mcg/ml.
Where [23] appears, read: Homo sapiens, Leukocyte, conc. 90 μg/ml.

Where two headings read alike, the source gives them in different places.

Results on seven molecules are retold here after US5217990A, “Use of macrolactones as anti-allergics” (Boehringer Mannheim GmbH, priority 1989, dated 1993).

For orientation: inhibition means the drop in the measured response relative to a control, in per cent.

Regarding `C[C@H]1CCCCC[C@H](O)[C@@H](O)/C=C\C(=O)O1` [cladospolide B], the “action on the root growth of lettuce seeds” value in assay [1] was “promotingly”.

`CC1CCCCCCC(=O)/C=C\C(=O)O1` (stereo not drawn) [patulolide B]: the inhibition at 2 µg/mL in assay [2] (setting [5]) is 57%; in assay [4] (setting [5]), 63%. Further, the inhibition at 10 µg/mL in assay [2] (setting [6]) turned out to be 100%; in assay [3] (setting [7]) it was 5%; in assay [3] (setting [8]), 54%; in assay [3] (setting [9]), 47%; in assay [3] (setting [10]), 51%; in assay [4] (setting [6]), 99%. Also, the inhibition at 40 µg/mL in assay [3] (setting [11]) worked out at 3%; in assay [3] (setting [12]) it was 95%; in assay [3] (setting [13]), 93%; in assay [3] (setting [14]), 93%. In addition, the plant growth inhibition result in the assay with plant growth is “plant growth inhibiting”.

For the molecule `CC1CCCCCCC(=O)/C=C/C(=O)O1` (stereo not drawn) [patulolide A], the values for the inhibition at 2 µg/mL in assay [2] (setting [5]) and in assay [4] (setting [5]) were 44% and 46%, respectively. Besides, the inhibition at 10 µg/mL is 100% in assay [2] (setting [6]); 23% in assay [3] (setting [7]); 35% in assay [3] (setting [8]); 35% in assay [3] (setting [9]); 35% in assay [3] (setting [10]); 99% in assay [4] (setting [6]). In addition, the inhibition at 40 µg/mL in assay [3] (setting [11]) is 21%; in assay [3] (setting [12]), 51%; in assay [3] (setting [13]), 53%; in assay [3] (setting [14]) it was 30%. For the same molecule, in the assay with plant growth, the plant growth inhibition entry is “plant growth inhibiting”.

With `CC(=O)OC1C=CC(=O)OC(C)CCCCCC1OC(C)=O` (stereo not drawn) [diacetylcladospolide A, Diacetylcladospolide A], the inhibition at 2 µg/mL in assay [2] (setting [5]) turned out to be 17%; in assay [4] (setting [5]) it was 14%. For the same molecule, the inhibition at 10 µg/mL amounted to 92% in assay [2] (setting [6]) and 96% in assay [4] (setting [6]). In addition, the inhibition at 40 µg/mL was 6% in assay [3] (setting [11]), 44% in assay [3] (setting [12]), 45% in assay [3] (setting [13]) and 46% in assay [3] (setting [14]).

With `C[C@@H]1CCCCC[C@H](O)[C@H](O)/C=C/C(=O)O1` [cladospolide A], the “% inhibition histamine” value in assay [2] (conc. 2 μg/ml) is 8%; in assay [2] (conc. 10 μg/ml), 44%. Also, in assay [1], the “action on the root growth of lettuce seeds” value is reported as “weakly inhibitingly”. Also, the “Inhibition of constriction (percentage reduction of the constriction amplitude), spasmogen A” value in assay [3] (setting [15]) was -5%; in assay [3] (setting [19]) it was 16%. The “Inhibition of constriction (percentage reduction of the constriction amplitude), spasmogen B” value in assay [3] (setting [16]) was -50%; in assay [3] (setting [20]) it was 34%. The “Inhibition of constriction (percentage reduction of the constriction amplitude), spasmogen C” value in assay [3] (setting [17]) is reported as -85%; in assay [3] (setting [21]), 33%. Besides, the “Inhibition of constriction (percentage reduction of the constriction amplitude), spasmogen D” value in assay [3] (setting [18]) is reported as -76%; in assay [3] (setting [22]), 24%. Further, the “% inhibition proteinase” value in assay [4] (conc. 2 μg/ml) is given as 5%; in assay [4] (conc. 10 μg/ml) it was 46%.

For the molecule `C[C@@H]1CCCCCC[C@H](O)/C=C\C(=O)O1` [patulolide C], the “Inhibition of constriction (percentage reduction of the constriction amplitude), spasmogen A” value in assay [3] (setting [15]) is -38%; in assay [3] (setting [19]), -24%. The “Inhibition of constriction (percentage reduction of the constriction amplitude), spasmogen B” value in assay [3] (setting [16]) is on record as -35%; in assay [3] (setting [20]), -40%. The “Inhibition of constriction (percentage reduction of the constriction amplitude), spasmogen C” value in assay [3] (setting [17]) is given as -98%; in assay [3] (setting [21]) it was -36%. In addition, the “Inhibition of constriction (percentage reduction of the constriction amplitude), spasmogen D” value was -26% in assay [3] (setting [18]) and -33% in assay [3] (setting [22]). For the same molecule, the “R = relaxation” value in assay [3] (substance 40.00 mcg/ml) was “R”. Besides, in the assay with plant growth, the plant growth inhibition result is reported as “plant growth inhibiting”.

As for `Cn1c(=O)c2[nH]cnc2n(C)c1=O` [theophylline, reference compound], the values for the inhibition at 90 µg/mL in assay [2] (setting [23]) and in assay [4] (setting [23]) were 72% and 70%, respectively.
